For 32 compounds, IC50 results are on record in patent publication US20110130380A1, “Heteroaryl Kinase Inhibitors” (priority 2009, published 2011).

Molecules are shown by their SMILES. pIC50: −log10 of the molar value. Some results are limits rather than exact numbers.

The target of the experiment is Cdk9/cyclinT1 (Homo sapiens, UniProt P50750). Description: Cdk9/cyclinT1 IMAP Protocol (fluorescence polarization kinase assay). Particulars: Cdk9_cyclinT1_IC50, Table V; generated using one of the two Cdk9/cyclinT1 assays (IMAP or Alpha Screen), not stated which; ATP 6 uM. (In fluorescence polarisation assays a small probe gives low polarisation when free and higher when bound to something large.)
Sequence of Cdk9/cyclinT1 (P50750 whole entry): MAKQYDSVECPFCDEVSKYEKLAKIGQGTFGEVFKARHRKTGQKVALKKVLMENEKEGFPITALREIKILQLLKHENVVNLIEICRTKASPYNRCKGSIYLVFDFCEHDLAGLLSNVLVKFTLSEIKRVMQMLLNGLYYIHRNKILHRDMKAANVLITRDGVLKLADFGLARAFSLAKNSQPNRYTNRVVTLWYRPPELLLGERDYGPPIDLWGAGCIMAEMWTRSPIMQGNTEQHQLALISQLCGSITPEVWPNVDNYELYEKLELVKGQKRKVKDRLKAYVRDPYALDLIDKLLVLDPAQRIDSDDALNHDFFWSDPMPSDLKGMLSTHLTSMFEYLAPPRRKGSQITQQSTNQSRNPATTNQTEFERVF
Sequence of Cdk9/cyclinT1 (O60563 whole entry partner): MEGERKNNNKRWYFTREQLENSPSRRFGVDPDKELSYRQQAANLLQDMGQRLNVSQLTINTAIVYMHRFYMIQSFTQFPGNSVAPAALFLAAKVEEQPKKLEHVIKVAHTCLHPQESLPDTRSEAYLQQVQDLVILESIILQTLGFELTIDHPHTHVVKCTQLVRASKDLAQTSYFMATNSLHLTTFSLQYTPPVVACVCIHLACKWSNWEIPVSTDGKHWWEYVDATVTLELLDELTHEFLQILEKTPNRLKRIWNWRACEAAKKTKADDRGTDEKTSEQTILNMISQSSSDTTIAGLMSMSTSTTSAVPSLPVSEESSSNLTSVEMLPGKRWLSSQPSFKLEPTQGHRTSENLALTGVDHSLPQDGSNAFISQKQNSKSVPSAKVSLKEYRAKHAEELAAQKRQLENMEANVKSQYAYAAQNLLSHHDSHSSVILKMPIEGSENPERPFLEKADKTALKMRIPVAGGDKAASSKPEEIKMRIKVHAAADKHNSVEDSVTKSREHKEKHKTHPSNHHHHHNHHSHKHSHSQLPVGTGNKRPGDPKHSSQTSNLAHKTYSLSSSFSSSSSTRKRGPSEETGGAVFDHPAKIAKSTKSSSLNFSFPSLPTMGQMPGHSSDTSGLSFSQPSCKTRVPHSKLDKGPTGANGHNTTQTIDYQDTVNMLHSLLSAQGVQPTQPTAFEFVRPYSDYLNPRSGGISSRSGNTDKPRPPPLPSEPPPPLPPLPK

As a reminder, the pIC50 is the IC50 on a negative log10 scale, so that one unit is a factor of ten. In turn, `O=C(Nc1cc(-c2cccc(NCc3cccc(F)c3)n2)c(Cl)cn1)C1CCCCC1` [Example 2, Cyclohexanecarboxylic acid [5′-chloro-6-(3-fluoro-benzylamino)-[2,4′]bipyridinyl-2′-yl]-amide] had a negative logarithm of the IC50 (pIC50) of 6.87.

Compound `O=C(Nc1cc(-c2cccc(NCC3CCOCC3)n2)c(Cl)cn1)[C@@H]1CCCNC1` [Example 3, (R)-Piperidine-3-carboxylic acid {5′-chloro-6-[(tetrahydro-pyran-4-ylmethyl)-amino]-[2,4′]bipyridinyl-2′-yl}-amide] had a pIC50 of 9.00.

The compound `O=C(Nc1cc(-c2cccc(NCc3cccc(F)c3)n2)c(Cl)cn1)[C@H]1CCCNC1` [Example 4, (S)-Piperidine-3-carboxylic acid [5′-chloro-6-(3-fluoro-benzylamino)-[2,4′]bipyridinyl-2′-yl]-amide] showed a pIC50 of 7.77.

`CC(C)(C)OC(=O)N1CCC[C@H](C(=O)Nc2cc(-c3cccc(NCc4cccc(F)c4)n3)c(Cl)cn2)C1` [Example 5, (S)-3-[5′-Chloro-6-(3-fluoro-benzylamino)-[2,4′]bipyridinyl-2′-ylcarbamoyl]-piperidine-1-carboxylic acid tert-butyl ester] had a negative-log IC50 (pIC50) of 7.21. Against the preceding compound, the pIC50 is 0.56 log units lower.

Compound `CC(C)(C)OC(=O)N1CCC[C@@H](C(=O)Nc2cc(-c3cccc(NCC4CCOCC4)n3)c(Cl)cn2)C1` [Example 6, (R)-3-{5′-Chloro-6-[(tetrahydro-pyran-4-ylmethyl)-amino]-[2,4′]bipyridinyl-2′-ylcarbamoyl}-piperidine-1-carboxylic acid tert-butyl ester] showed a pIC50 of 7.04. This pIC50 and that of the compound before are within 0.2 log units of each other.

`O=C(Nc1cc(-c2cccc(NCC3CCOCC3)n2)c(Cl)cn1)C1CCNCC1` [Example 7, Piperidine-4-carboxylic acid {5′-chloro-6-[(tetrahydro-pyran-4-ylmethyl)-amino]-[2,4′]bipyridinyl-2′-yl}-amide] had a pIC50 of 7.85.

With `O=C(Nc1cc(-c2cccc(NCC3CCOCC3)n2)c(Cl)cn1)[C@H]1CCCNC1` [Example 8, (S)-Piperidine-3-carboxylic acid {5′-chloro-6-[(tetrahydro-pyran-4-ylmethyl)-amino]-[2,4′]bipyridinyl-2′-yl}-amide], the negative-log IC50 (pIC50) is 7.34. Compared with the last compound, the pIC50 is 0.51 log units lower.

`CCN1CCCC(C(=O)Nc2cc(-c3cccc(NCC4CCOCC4)n3)c(Cl)cn2)C1` (centres unmarked) [Example 9, 1-Ethyl-piperidine-3-carboxylic acid {5′-chloro-6-[(tetrahydro-pyran-4-ylmethyl)-amino]-[2,4′]bipyridinyl-2′-yl}-amide] showed a pIC50 of 6.84. Compared with the last compound, the pIC50 is 0.50 log units lower.

For `O=C(Nc1cc(-c2cccc(NCC3CCOCC3)n2)c(Cl)cn1)[C@@H]1CCCN(CCF)C1` [Example 10, (R)-1-(2-Fluoro-ethyl)-piperidine-3-carboxylic acid {5′-chloro-6-[(tetrahydro-pyran-4-ylmethyl)-amino]-[2,4′]bipyridinyl-2′-yl}-amide], the pIC50 was 6.79.

On to `O=C(Nc1cc(-c2cccc(NCC3CCOCC3)n2)c(Cl)cn1)[C@@H]1CCCN(CC(F)(F)F)C1` [Example 11, (R)-1-(2,2,2-Trifluoro-ethyl)-piperidine-3-carboxylic acid {5′-chloro-6-[(tetrahydro-pyran-4-ylmethyl)-amino]-[2,4′]bipyridinyl-2′-yl}-amide], for which the pIC50 was 6.11.

In the case of `O=C(Nc1cc(-c2cccc(NCC3CCS(=O)(=O)CC3)n2)c(Cl)cn1)[C@@H]1CCCNC1` [Example 12, (R)-piperidine-3-carboxylic acid {5′-chloro-6-[(1′,1′-dioxo-hexahydro-1-thiopyran-4-ylmethyl)-amino]-[2,4′]bipyridinyl-2′-yl}-amide], the pIC50 is over 8.10.

In the case of `O=C(Nc1cc(-c2cccc(NCC3CCOCC3)n2)c(Cl)cn1)C1CNCCO1` (centres unmarked) [Example 13, Morpholine-2-carboxylic acid {5′-chloro-6-[(tetrahydro-pyran-4-ylmethyl)-amino]-[2,4′]bipyridinyl-2′-yl}-amide], the pIC50 was 7.80.

`O=C(Nc1cc(-c2cccc(NCC3CCOCC3)n2)ccn1)[C@@H]1CCCNC1` [Example 15, (R)-Piperidine-3-carboxylic acid {6-[(tetrahydro-pyran-4-ylmethyl)-amino]-[2,4′]bipyridinyl-2′-yl}-amide] gave a pIC50 of over 8.10.

On to `COCCN1CCC[C@@H](C(=O)Nc2cc(-c3cccc(NCC4CCOCC4)n3)c(Cl)cn2)C1` [Example 16, (R)-1-(2-Methoxy-ethyl)-piperidine-3-carboxylic acid {5′-chloro-6-[(tetrahydro-pyran-4-ylmethyl)-amino]-[2,4′]bipyridinyl-2′-yl}-amide], for which the pIC50 is 6.07.

`O=C(Nc1cc(-c2cccc(NCC3CCCCC3)n2)c(Cl)cn1)[C@@H]1CCCNC1` [Example 17, (R)-Piperidine-3-carboxylic acid [5′-chloro-6-(cyclohexylmethyl-amino)-[2,4′]bipyridinyl-2′-yl]-amide] gave a pIC50 of over 8.10.

Compound `O=C(Nc1cc(-c2cccc(NCC3CCCOC3)n2)c(Cl)cn1)[C@@H]1CCCNC1` (stereo partly drawn) [Example 18, (R)-Piperidine-3-carboxylic acid {5′-chloro-6-[(tetrahydro-pyran-3-ylmethyl)-amino]-[2,4′]bipyridinyl-2′-yl}-amide] had a pIC50 of over 8.10.

The compound `O=C(Nc1cc(-c2cccc(NCC3CCCCCC3)n2)c(Cl)cn1)[C@@H]1CCCNC1` [Example 19, (R)-Piperidine-3-carboxylic acid [5′-chloro-6-(cycloheptylmethyl-amino)-[2,4′]bipyridinyl-2′-yl]-amide] showed a pIC50 of over 8.10.

Consider `O=C(Nc1cc(-c2cccc(NCC3CC3)n2)c(Cl)cn1)[C@@H]1CCCNC1` [Example 20, (R)-Piperidine-3-carboxylic acid [5′-chloro-6-(cyclopropylmethyl-amino)-[2,4′]bipyridinyl-2′-yl]-amide], for which the pIC50 was 7.36.

Take `CNc1cccc(-c2cc(NC(=O)[C@@H]3CCCNC3)ncc2Cl)n1` [Example 21, (R)-Piperidine-3-carboxylic acid (5′-chloro-6-methylamino-[2,4′]bipyridinyl-2′-yl)-amide]: the pIC50 was 7.12.

On to `CC(C)CNc1cccc(-c2cc(NC(=O)[C@@H]3CCCNC3)ncc2Cl)n1` [Example 22, (R)-Piperidine-3-carboxylic acid (5′-chloro-6-isobutylamino-[2,4′]bipyridinyl-2′-yl)-amide], for which the pIC50 is 7.48.

For the compound `CC(C)CCNc1cccc(-c2cc(NC(=O)[C@@H]3CCCNC3)ncc2Cl)n1` [Example 23, (R)-Piperidine-3-carboxylic acid [5′-chloro-6-(3-methyl-butylamino)-[2,4′]bipyridinyl-2′-yl]-amide], the pIC50 is 8.05.

With `O=C(Nc1cc(-c2cccc(NCC3COCCO3)n2)c(Cl)cn1)[C@@H]1CCCNC1` (stereo partly drawn) [Example 24, (R)-Piperidine-3-carboxylic acid {5′-chloro-6-[([1,4]dioxan-2-ylmethyl)-amino]-[2,4′]bipyridinyl-2′-yl}-amide], the pIC50 is over 8.10.

In turn, `O=C(Nc1cc(-c2cccc(NC[C@H]3CCCO3)n2)c(Cl)cn1)[C@@H]1CCCNC1` [Example 25, (R)-Piperidine-3-carboxylic acid (5′-chloro-6-{[(R)-1-(tetrahydro-furan-2-yl)methyl]-amino}-[2,4′]bipyridinyl-2′-yl)-amide] showed a negative-log IC50 (pIC50) of 7.33.

With `COCCNc1cccc(-c2cc(NC(=O)[C@@H]3CCCNC3)ncc2Cl)n1` [Example 26, (R)-Piperidine-3-carboxylic acid [5′-chloro-6-(2-methoxy-ethylamino)-[2,4′]bipyridinyl-2′-yl]-amide], the pIC50 was 7.49.

`O=C(Nc1cc(-c2cccc(NC[C@@H]3CCCO3)n2)c(Cl)cn1)[C@@H]1CCCNC1` [Example 27, (R)-Piperidine-3-carboxylic acid (5′-chloro-6-{[(S)-1-(tetrahydro-furan-2-yl)methyl]-amino}-[2,4′]bipyridinyl-2′-yl)-amide] had a pIC50 of 7.68.

On to `COCCCNc1cccc(-c2cc(NC(=O)[C@@H]3CCCNC3)ncc2Cl)n1` [Example 28, (R)-Piperidine-3-carboxylic acid [5′-chloro-6-(3-methoxy-propylamino)-[2,4′]bipyridinyl-2′-yl]-amide], for which the pIC50 was 7.68.

`C[C@@H](O)CNc1cccc(-c2cc(NC(=O)[C@@H]3CCCNC3)ncc2Cl)n1` [Example 29, (R)-Piperidine-3-carboxylic acid [5′-chloro-6-((R)-2-hydroxy-propylamino)-[2,4′]bipyridinyl-2′-yl]-amide] had a pIC50 of 7.59.

As for `CC(=O)N1CCC(CNc2cccc(-c3cc(NC(=O)[C@@H]4CCCNC4)ncc3Cl)n2)CC1` [Example 30, (R)-Piperidine-3-carboxylic acid {6-[(1-acetyl-piperidin-4-ylmethyl)-amino]-5′-chloro-[2,4′]bipyridinyl-2′-yl}-amide], the pIC50 is over 8.10.

In turn, `C[C@H](O)CNc1cccc(-c2cc(NC(=O)[C@@H]3CCCNC3)ncc2Cl)n1` [Example 31, (R)-Piperidine-3-carboxylic acid [5′-chloro-6-((S)-2-hydroxy-propylamino)-[2,4′]bipyridinyl-2′-yl]-amide] showed a pIC50 of 7.34.

`O=C(Nc1cc(-c2cccc(NCCN3CCCC3=O)n2)c(Cl)cn1)[C@@H]1CCCNC1` [Example 32, (R)-Piperidine-3-carboxylic acid {5′-chloro-6-[2-(2-oxo-pyrrolidin-1-yl)-ethylamino]-[2,4′]bipyridinyl-2′-yl}-amide] had a negative-log IC50 (pIC50) of 7.72.

In the case of `O=C(Nc1cc(-c2cccc(NC3CCOCC3)n2)c(Cl)cn1)[C@@H]1CCCNC1` [Example 33, (R)-Piperidine-3-carboxylic acid [5′-chloro-6-(tetrahydro-pyran-4-ylamino)-[2,4′]bipyridinyl-2′-yl]-amide], the pIC50 was 7.12.

`O=C(Nc1cc(-c2cccc(NCC3CCCCO3)n2)c(Cl)cn1)[C@@H]1CCCNC1` (stereo partly drawn) [Example 34, (R)-Piperidine-3-carboxylic acid {5′-chloro-6-[(tetrahydro-pyran-2-ylmethyl)-amino]-[2,4′]bipyridinyl-2′-yl}-amide] had a pIC50 of 8.00. This pIC50 lies 0.88 log units higher than the previous one.
